Measurements as given in publication PMC11374673, “Discovery of isoquinoline sulfonamides as allosteric gyrase inhibitors with activity against fluoroquinolone-resistant bacteria” (Nature Chemistry, 2024).
Converted amounts (≈) assume the structure as drawn. “And” between values parts separate entries of the source, which are not always exact repeats. Equal entries are not always repeated.

How the values were obtained:
[1] = tested on: E. coli W3110; assay: MIC by broth microdilution; format: cell-based, Escherichia coli; settings: for MIC: Escherichia coli, W3110, WT, broth microdilution, read-out: MIC E. coli W3110
In short: (§1)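 Exponential-phase cultures (OD600 0.5, 37 °C aerobic), diluted 100-fold in CAMHB, were added to twofold compound dilution series. Keio strains grown with 50 µg ml^−1 kanamycin. Plates incubated overnight at 37 °C, shaking at 600 r.p.m.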

[2] = tested on: K. pneumoniae ATCC 29665; assay: MIC by broth microdilution; format: cell-based, Klebsiella pneumoniae; settings: Klebsiella pneumoniae, ATCC29665, broth microdilution; read-out: MIC K. pneumoniae ATCC 29665
In short: as §1

[3] = tested on: HepG2; assay: Cytotoxicity assay (MTT); format: cell-based, human; settings: for IC50: Homo sapiens, HepG2, 24 h, MTT, 24 h
Experimental: (§2) HepG2 (ATCC HB-8065) and HEK293T (ATCC CRL-3216) cell lines were cultured at 37 °C and 7% CO2 in Dulbecco’s modified Eagle medium (Sigma-Aldrich, D6546) with GlutaMax, penicillin (100 µg ml^−1), streptomycin (100 µg ml^−1) and 10% fetal calf serum. Cells were passaged twice a week by first detaching using 0.05% trypsin in phosphate-buffered saline (PBS) and then diluting to appropriate confluence. Compound cytotoxicity was evaluated using the standard (3-(4,5-dimethylthiazol-2-yl)-2,5-diphenyltetrazolium bromide (MTT) assay protocol (MTT assay protocol for cell viability and proliferation, Merck) with slight changes. HepG2 and HEK293T cells were seeded at a density of 1.5 × 10^4 cells per well in a clear 96-well tissue culture treated plate in a final volume of 100 µl in Dulbecco’s modified Eagle medium, supplemented with fetal bovine serum (1%), GlutaMax and penicillin/streptomycin. Cells were incubated for 24 h at 37 °C, 7% CO2 to allow cells to attach to the plates. […] Incubation was done for 24 h at 37 °C, 7% CO2. After the incubation, MTT was added to each well at a final concentration of 0.40 mg ml^−1. The plates were then incubated for 2 h at 37 °C, 7% CO2. Medium was carefully removed via suction, and purple formazan crystals were resuspended in 100 µl DMSO. Absorbance was read at 570 nm using a Clariostar plate reader with MARS (V4.20). The data were then analysed with GraphPad Prism software. IC50 values were calculated using non-linear fitted curve with variable slope settings, with values adjusted for background (plotted absorbance (ABS)sample = (ABSsample – ABSbackground) / (ABSvehicle – ABSbackground)). Technical triplicates for each condition were used, along with biological duplicates.

[4] = tested on: HEK293T; assay: Cytotoxicity assay (MTT); format: cell-based, human; settings: for MTT data (raw readout): HEK293T; for IC50: 24 h, MTT
Experimental: as §2

[5] = HepG2, 0.023 uM, experiment n = 1, technical triplicates
[6] = HepG2, 0.023 uM, experiment n = 2, technical triplicates
[7] = HepG2, 0.068 uM, experiment n = 1, technical triplicates
[8] = HepG2, 0.068 uM, experiment n = 2, technical triplicates
[9] = HepG2, 0.21 uM, experiment n = 1, technical triplicates
[10] = HepG2, 0.21 uM, experiment n = 2, technical triplicates
[11] = HepG2, 0.62 uM, experiment n = 1, technical triplicates
[12] = HepG2, 0.62 uM, experiment n = 2, technical triplicates
[13] = HepG2, 1.85 uM, experiment n = 1, technical triplicates
[14] = HepG2, 1.85 uM, experiment n = 2, technical triplicates
[15] = HepG2, 5.6 uM, experiment n = 1, technical triplicates
[16] = HepG2, 5.6 uM, experiment n = 2, technical triplicates
[17] = HepG2, 16.7 uM, experiment n = 1, technical triplicates
[18] = HepG2, 16.7 uM, experiment n = 2, technical triplicates
[19] = HepG2, 50 uM, experiment n = 1, technical triplicates
[20] = 0.023 uM, experiment n = 1, technical triplicates
[21] = 0.023 uM, experiment n = 2, technical triplicates
[22] = 0.068 uM, experiment n = 1, technical triplicates
[23] = 0.068 uM, experiment n = 2, technical triplicates
[24] = 0.21 uM, experiment n = 1, technical triplicates
[25] = 0.21 uM, experiment n = 2, technical triplicates
[26] = 0.62 uM, experiment n = 1, technical triplicates
[27] = 0.62 uM, experiment n = 2, technical triplicates
[28] = 1.85 uM, experiment n = 1, technical triplicates
[29] = 1.85 uM, experiment n = 2, technical triplicates
[30] = 5.6 uM, experiment n = 1, technical triplicates
[31] = 5.6 uM, experiment n = 2, technical triplicates
[32] = 16.7 uM, experiment n = 1, technical triplicates
[33] = 16.7 uM, experiment n = 2, technical triplicates
[34] = 50 uM, experiment n = 1, technical triplicates
[35] = 50 uM, experiment n = 2, technical triplicates

Compound: O=S(=O)(NC[C@@H]1CC[C@H](c2ccc(-c3ccccc3)cc2)N1)c1cccc2cnccc12 [Compound 100]
- MIC [1]: 1.6 µM (≈ 0.71 µg/mL)
- MIC [2]: 6.25 µM (≈ 2.77 µg/mL)
- MTT data (raw readout) [3, 5]: 0.333 and 0.336 and 0.361
- MTT data (raw readout) [3, 6]: 0.317 and 0.327 and 0.342
- MTT data (raw readout) [3, 7]: 0.444 and 0.395 and 0.393
- MTT data (raw readout) [3, 8]: 0.444 and 0.405 and 0.418
- MTT data (raw readout) [3, 9]: 0.321 and 0.295 and 0.307
- MTT data (raw readout) [3, 10]: 0.315 and 0.286 and 0.293
- MTT data (raw readout) [3, 11]: 0.316 and 0.335 and 0.382
- MTT data (raw readout) [3, 12]: 0.313 and 0.317 and 0.366
- MTT data (raw readout) [3, 13]: 0.377 and 0.346 and 0.368
- MTT data (raw readout) [3, 14]: 0.307 and 0.264 and 0.317
- MTT data (raw readout) [3, 15]: 0.341 and 0.333 and 0.345
- MTT data (raw readout) [3, 16]: 0.271 and 0.300 and 0.310
- MTT data (raw readout) [3, 17]: 0.345 and 0.363 and 0.356
- MTT data (raw readout) [3, 18]: 0.277 and 0.308 and 0.357
- MTT data (raw readout) [3, 19]: 0.236 and 0.222 and 0.339
- MTT data (raw readout) ([3]; HepG2, 50 uM, experiment n = 2, technical triplicates): 0.109 and 0.122 and 0.118
- IC50 [3]: 37 µM
- cytotoxicity ([4]; HEK293T and HepG2): substantial cytotoxicity
- MTT data (raw readout) [4, 20]: 1.435 and 1.455 and 1.506
- MTT data (raw readout) [4, 21]: 1.022 and 0.970 and 0.963
- MTT data (raw readout) [4, 22]: 1.260 and 1.443 and 1.546
- MTT data (raw readout) [4, 23]: 1.032 and 0.974 and 0.962
- MTT data (raw readout) [4, 24]: 1.440 and 1.428 and 1.427
- MTT data (raw readout) [4, 25]: 1.023 and 0.943 and 0.880
- MTT data (raw readout) [4, 26]: 1.304 and 1.414 and 1.203
- MTT data (raw readout) [4, 27]: 0.795 and 0.796 and 0.802
- MTT data (raw readout) [4, 28]: 0.892 and 0.934 and 1.008
- MTT data (raw readout) [4, 29]: 0.653 and 0.625 and 0.564
- MTT data (raw readout) [4, 30]: 0.787 and 0.844 and 0.842
- MTT data (raw readout) [4, 31]: 0.528 and 0.470 and 0.496
- MTT data (raw readout) [4, 32]: 0.654 and 0.620 and 0.622
- MTT data (raw readout) [4, 33]: 0.433 and 0.475 and 0.464
- MTT data (raw readout) [4, 34]: 0.419 and 0.461 and 0.443
- MTT data (raw readout) [4, 35]: 0.271 and 0.254 and 0.252
- IC50 ([4]; Homo sapiens, HEK-293T): 8.1 µM

Compound: N#Cc1ccc(-c2ccc(CNCCNS(=O)(=O)c3cccc4cnccc34)cc2)cc1 [Compound 63]
- MIC [1]: 6.25 µM (≈ 2.77 µg/mL)
- MIC [2]: 12.5 µM (≈ 5.53 µg/mL)
- MTT data (raw readout) [3, 5]: 0.543 and 0.530 and 0.509
- MTT data (raw readout) [3, 6]: 0.611 and 0.614 and 0.593
- MTT data (raw readout) [3, 7]: 0.510 and 0.515 and 0.533
- MTT data (raw readout) [3, 8]: 0.570 and 0.587 and 0.633
- MTT data (raw readout) [3, 9]: 0.498 and 0.524 and 0.534
- MTT data (raw readout) [3, 10]: 0.605 and 0.658 and 0.657
- MTT data (raw readout) [3, 11]: 0.497 and 0.566 and 0.560
- MTT data (raw readout) [3, 12]: 0.617 and 0.653 and 0.661
- MTT data (raw readout) [3, 13]: 0.544 and 0.508 and 0.538
- MTT data (raw readout) [3, 14]: 0.697 and 0.634 and 0.669
- MTT data (raw readout) [3, 15]: 0.597 and 0.586 and 0.658
- MTT data (raw readout) [3, 16]: 0.663 and 0.721 and 0.746
- MTT data (raw readout) [3, 17]: 0.547 and 0.517 and 0.544
- MTT data (raw readout) [3, 18]: 0.629 and 0.671 and 0.616
- IC50 [3]: 38 µM
- MTT data (raw readout) [4, 20]: 0.901 and 1.153 and 1.291
- MTT data (raw readout) [4, 21]: 0.788 and 0.714 and 0.753
- MTT data (raw readout) [4, 22]: 1.230 and 1.606
- MTT data (raw readout) [4, 23]: 0.880 and 0.788
- MTT data (raw readout) [4, 24]: 1.126 and 1.263 and 1.301
- MTT data (raw readout) [4, 25]: 0.786 and 0.824 and 0.781
- MTT data (raw readout) [4, 26]: 1.516 and 1.537 and 1.418
- MTT data (raw readout) [4, 27]: 0.850 and 0.846 and 0.825
- MTT data (raw readout) [4, 28]: 1.143 and 1.250 and 1.118
- MTT data (raw readout) [4, 29]: 0.775 and 0.761 and 0.773
- MTT data (raw readout) [4, 30]: 1.050 and 1.130 and 1.181
- MTT data (raw readout) [4, 31]: 0.666 and 0.667 and 0.723
- MTT data (raw readout) [4, 32]: 0.577 and 0.585 and 0.499
- MTT data (raw readout) [4, 33]: 0.403 and 0.407 and 0.398
- MTT data (raw readout) [4, 34]: 0.057 and 0.055 and 0.049
- IC50 ([4]; Homo sapiens, HEK-293T): 14.7 µM

Compound: O=S(=O)(NCCNCc1ccc(-c2ccccc2)cc1)c1cccc2cnccc12 [Compound 56]
- MIC [1]: 6.25 µM (≈ 2.61 µg/mL)
- antimicrobial activity ([1]; relative to parent compound): equally potent
- MIC [2]: 12.5 µM (≈ 5.22 µg/mL)
- MTT data (raw readout) [3, 5]: 0.559 and 0.503 and 0.453
- MTT data (raw readout) [3, 6]: 0.586 and 0.547 and 0.578
- MTT data (raw readout) [3, 7]: 0.490 and 0.488 and 0.494
- MTT data (raw readout) [3, 8]: 0.579 and 0.616 and 0.615
- MTT data (raw readout) [3, 9]: 0.573 and 0.504 and 0.507
- MTT data (raw readout) [3, 10]: 0.577 and 0.574 and 0.618
- MTT data (raw readout) [3, 11]: 0.495 and 0.510 and 0.493
- MTT data (raw readout) [3, 12]: 0.602 and 0.579 and 0.597
- MTT data (raw readout) [3, 13]: 0.533 and 0.518 and 0.529
- MTT data (raw readout) [3, 14]: 0.634 and 0.597 and 0.638
- MTT data (raw readout) [3, 15]: 0.550 and 0.534 and 0.503
- MTT data (raw readout) [3, 16]: 0.619 and 0.618 and 0.638
- MTT data (raw readout) [3, 17]: 0.186 and 0.116 and 0.134
- MTT data (raw readout) [3, 19]: 0.0047 and 0.0027
- IC50 [3]: 16.7 µM
- MTT data (raw readout) [4, 20]: 0.760 and 0.712 and 0.710
- MTT data (raw readout) [4, 21]: 0.814 and 0.790 and 0.847
- MTT data (raw readout) [4, 22]: 0.777 and 0.824 and 0.787
- MTT data (raw readout) [4, 23]: 0.796 and 0.816 and 0.794
- MTT data (raw readout) [4, 24]: 0.818 and 0.751 and 0.739
- MTT data (raw readout) [4, 25]: 0.813 and 0.836 and 0.832
- MTT data (raw readout) [4, 26]: 0.783 and 0.761 and 0.744
- MTT data (raw readout) [4, 27]: 0.785 and 0.778 and 0.750
- MTT data (raw readout) [4, 28]: 0.680 and 0.683 and 0.658
- MTT data (raw readout) [4, 29]: 0.720 and 0.749 and 0.788
- MTT data (raw readout) [4, 30]: 0.523 and 0.537 and 0.570
- MTT data (raw readout) [4, 31]: 0.582 and 0.590 and 0.593
- MTT data (raw readout) [4, 32]: 0.243 and 0.263 and 0.287
- MTT data (raw readout) [4, 33]: 0.271 and 0.304 and 0.282
- MTT data (raw readout) [4, 34]: 0.032 and 0.041 and 0.051
- MTT data (raw readout) [4, 35]: 0.036 and 0.023 and 0.035
- IC50 ([4]; Homo sapiens, HEK-293T): 10 µM
- IC50 [4]: 10.4 µM
